Measured values reported in patent US20180087023A1, “METHOD OF PRODUCING BIOPRODUCTS” (White Dog Labs, Inc., priority 2015, published 2018).

Columns and labels:
[1] = Single-stage extraction of 2% aqueous bioproduct solutions with extractant (Examples 1-9); assay type: physicochemical; conditions: for Raffinate Bioproduct conc. (%) / Extract Bioproduct conc. (%): 100 g of 2% aqueous solution mixed with 100 g extractant of 80% 1-butene + 20% DME; for Raffinate Bioproduct conc. (%): raffinate phase; for Extract Bioproduct conc. (%): pressure vessel, extract phase; for DC (bioproduct distribution coefficient): extract/raffinate, extractant 80% 1-butene + 20% DME, ambient temperature (Table 1); for Distribution coefficient, 100% DME: extractant 100% DME (Table 2)
Protocol: Extraction of various bioproducts with an extractant composed of 80% 1-butene and 20% dimethylether (DME) 100 grams (g) of aqueous solutions of various bioproducts were prepared. Bioproduct initial concentration was 2%. Each of these bioproduct aqueous solutions was extracted in a pressure vessel by mixing with 100 g of extractant composed of 80% 1-butene (the hydrocarbon) and 20% dimethylether (the oxygenated compound) at ambient temperature. The amount of formed extract and formed raffinate and the concentration (conc.) of the bioproduct in each were determined. Theses concentrations were used to calculate the bioproduct distribution coefficient (DC). Also determined was the concentration of DME in the raffinate. Table 2 compares the found distribution coefficients to those of extracting with an extractant composed of 100% DME.

[2] = Effect of DME/1-butene ratio in the extractant on n-butanol extraction (Example 10); assay type: physicochemical; conditions: after extracting 2% n-butanol solution, 1:1 w/w, room temperature
Protocol: Extractant to aqueous solution weight/weight ratio was 1 to 1. Distribution coefficients, extractant concentration in the raffinate and extraction yield (single stage extraction at the selected extractant/aqueous solution weight/weight ratio) were determined and are summarized in Table 3.

SMILES	Raffinate Bioproduct conc. (%) ([1]; ambient temperature)	Extract Bioproduct conc. (%) ([1]; ambient temperature)	DC (bioproduct distribution coefficient) [1]	Distribution coefficient, 100% DME [1]	Raffinate DME conc. (%) ([1]; DME in raffinate after extracting each 2% bioproduct solution with 80% 1-butene + 20% DME, ambient temperature)	Wt % Extractant in Raffinate [2]	Distribution coefficient, 20% DME + 80% 1-Butene ([1]; extractant 20% DME + 80% 1-butene (Table 2))
CCCC(C)=O [2-Pentanone]	0.22%	1.89%	8.45	5.82	–	–	–
CCCC=O [Butanal]	0.26%	1.85%	7.16	5.11	–	–	–
COC [DME, dimethylether, reference compound]	–	–	–	–	4.5%	31.0%	–
O=Cc1ccco1 [Furfural]	0.46%	0.162%	3.54	3.79	–	–	–
O=C1CCCO1 [Gamma Butyrolactone]	0.37%	0.172%	4.63	3.14	–	–	–
O=C(O)CCCC(=O)O [Glutaric Acid]	1.37%	0.56%	0.43	1.88	–	–	–
CCCC(=O)OC [Methyl Butyrate]	0.034%	2.12%	61.1	20.73	–	–	61.14
CCC(=O)O [Propionic Acid]	0.92%	1.09%	1.18	2.27	–	–	–
O=C(O)CCC(=O)O [Succinic Acid]	1.66%	0.22%	0.13	1.01	–	–	–
